Assay results as given in patent publication US8586573B2, “N-(Aminoheteroaryl)-1H-indole-2-carboxamide derivatives, and preparation and therapeutic application thereof” (Sanofi, priority 2006, dated 2013).

Question: For `COc1cc(N2CCCC2)ncc1NC(=O)c1cc2cc(F)ccc2n1Cc1ccncc1` [Compound 18, N-[4-methoxy-6-(pyrrolidin-1-yl)pyridin-3-yl]-5-fluoro-1-[(pyridin-4-yl)methyl]-1H-indole-2-carboxamide], which melting point is on record?
Answer: 225 to 226 °C

Question: With `Cc1cc(Cn2c(C(=O)Nc3ccc(N4CCCC4)nc3)cc3cc(F)ccc32)ccn1` [Compound 19, N-[6-(pyrrolidin-1-yl)pyridin-3-yl]-5-fluoro-1-[(2-methylpyridin-4-yl)methyl]-1H-indole-2-carboxamide] as the compound, how does the melting point read?
Answer: 213 to 215 °C

Question: Which melting point does the source give for `O=C(Nc1ccc(N2CC3CCC3C2)nc1)c1cc2cc(F)ccc2n1Cc1cccc(F)c1` (stereo not shown) [Compound 22, N-[6-(3-azabicyclo[3.2.0]hept-3-yl)pyridin-3-yl]-5-fluoro-1-(3-fluorobenzyl)-1H-indole-2-carboxamide] here?
Answer: 163 to 165 °C

Question: For `O=C(Nc1ccc(N2CC(O)C2)nc1)c1cc2cc(F)ccc2n1Cc1cccc(F)c1` [Compound 24, N-[6-(3-hydroxyazetidin-1-yl)pyridin-3-yl]-5-fluoro-1-(3-fluorobenzyl)-1H-indole-2-carboxamide], which melting point is on record?
Answer: 199 to 200 °C

Question: Which melting point does the source give for `O=C(Nc1ccc(N2CCC2)nc1)c1cc2cc(C(F)(F)F)ccc2n1Cc1cccc(F)c1` [Compound 25, N-[6-(azetidin-1-yl)pyridin-3-yl]-5-trifluoromethyl-1-(3-fluorobenzyl)-1H-indole-2-carboxamide] here?
Answer: 222 to 224 °C

Question: Which melting point does the source give for `O=C(Nc1ccc(N2CCC2)nc1)c1cc2cc(F)ccc2n1Cc1ccncc1` [Compound 26, N-[6-(azetidin-1-yl)pyridin-3-yl]-1-[(pyridin-4-yl)methyl]-5-fluoro-1H-indole-2-carboxamide] here?
Answer: 212 to 214 °C

Question: With `O=C(Nc1ccc(N2CC(O)C2)nc1)c1cc2cc(C(F)(F)F)ccc2n1Cc1cccc(F)c1` [Compound 29, N-[6-(3-hydroxyazetidin-1-yl)pyridin-3-yl]-1-(3-fluorobenzyl)-5-trifluoromethyl-1H-indole-2-carboxamide] as the compound, how does the melting point read?
Answer: 194 to 196 °C

Question: For `O=C(Nc1ccc(N2CC(O)C2)nc1)c1cc2ccc(C(F)(F)F)cc2n1Cc1cccc(F)c1` [Compound 30, N-[6-(3-hydroxyazetidin-1-yl)pyridin-3-yl]-1-(3-fluorobenzyl)-6-trifluoromethyl-1H-indole-2-carboxamide], which melting point is on record?
Answer: 253 to 255 °C

Question: Which melting point does the source give for `O=C(Nc1ccc(N2CCC2)nc1)c1cc2cc(F)ccc2n1Cc1ccccc1` [Compound 31, N-[6-(azetidin-1-yl)pyridin-3-yl]-5-fluoro-1-(benzyl)-1H-indole-2-carboxamide] here?
Answer: 208 to 210 °C

Question: With `Cc1cc(C)c2cc(C(=O)Nc3ccc(N4CCC4)nc3)n(Cc3cccc(F)c3)c2c1` [Compound 32, N-[6-(azetidin-1-yl)pyridin-3-yl]-4,6-dimethyl-1-(3-fluorobenzyl)-1H-indole-2-carboxamide] as the compound, how does the melting point read?
Answer: 234 to 236 °C

Question: Which melting point does the source give for `CC(C)(C)c1ccc2cc(C(=O)Nc3ccc(N4CCC4)nc3)n(Cc3cccc(F)c3)c2c1` [Compound 33, N-[6-(azetidin-1-yl)pyridin-3-yl]-6-tert-butyl-1-(3-fluorobenzyl)-1H-indole-2-carboxamide] here?
Answer: 204 to 206 °C

Question: For `CC(C)Oc1ccc2cc(C(=O)Nc3ccc(N4CCC4)nc3)n(Cc3cccc(F)c3)c2c1` [Compound 34, N-[6-(azetidin-1-yl)pyridin-3-yl]-6-isopropyloxy-1-(3-fluorobenzyl)-1H-indole-2-carboxamide], which melting point is on record?
Answer: 198 to 200 °C

Question: With `CS(=O)(=O)c1ccc2c(c1)cc(C(=O)Nc1ccc(N3CCC3)nc1)n2Cc1cccc(F)c1` [Compound 35, N-[6-(azetidin-1-yl)pyridin-3-yl]-5-methylsulphonyl-1-(3-fluorobenzyl)-1H-indole-2-carboxamide] as the compound, how does the melting point read?
Answer: 258 to 260 °C

Question: For `CN(C)c1ccc2cc(C(=O)Nc3ccc(N4CCC4)nc3)n(Cc3cccc(F)c3)c2c1` [Compound 36, N-[6-(azetidin-1-yl)pyridin-3-yl]-6-dimethylamino-1-(3-fluorobenzyl)-1H-indole-2-carboxamide], which melting point is on record?
Answer: 256 to 258 °C

Question: Which melting point does the source give for `CSc1ccc2cc(C(=O)Nc3ccc(N4CCC4)nc3)n(Cc3cccc(F)c3)c2c1` [Compound 37, N-[6-(azetidin-1-yl)pyridin-3-yl]-6-methylthio-1-(3-fluorobenzyl)-1H-indole-2-carboxamide] here?
Answer: 206 to 208 °C

Question: With `O=C(Nc1ccc(N2CCC2)nc1)c1cc2c(F)cccc2n1Cc1cccc(F)c1` [Compound 38, N-[6-(azetidin-1-yl)pyridin-3-yl]-4-fluoro-1-(3-fluorobenzyl)-1H-indole-2-carboxamide] as the compound, how does the melting point read?
Answer: 214 to 216 °C

Question: Which melting point does the source give for `O=C(Nc1ccc(N2CCC2)nc1)c1cc2cccc(F)c2n1Cc1cccc(F)c1` [Compound 39, N-[6-(azetidin-1-yl)pyridin-3-yl]-7-fluoro-1-(3-fluorobenzyl)-1H-indole-2-carboxamide] here?
Answer: 244 to 246 °C

Question: Which melting point does the source give for `O=C(Nc1ccc(N2CCC2)nc1)c1cc2ccc(F)cc2n1Cc1cccc(F)c1` [Compound 40, N-[6-(azetidin-1-yl)pyridin-3-yl]-6-fluoro-1-(3-fluorobenzyl)-1H-indole-2-carboxamide] here?
Answer: 210 to 212 °C

Question: Which melting point does the source give for `O=C(Nc1ccc(N2CCC2)nc1)c1cc2c(Cl)cccc2n1Cc1cccc(F)c1` [Compound 41, N-[6-(azetidin-1-yl)pyridin-3-yl]-4-chloro-1-(3-fluorobenzyl)-1H-indole-2-carboxamide] here?
Answer: 226 to 228 °C

Question: For `O=C(Nc1ccc(N2CCC2)nc1)c1cc2ccc(Cl)cc2n1Cc1cccc(F)c1` [Compound 42, N-[6-(azetidin-1-yl)pyridin-3-yl]-6-chloro-1-(3-fluorobenzyl)-1H-indole-2-carboxamide], which melting point is on record?
Answer: 218 to 220 °C

Question: With `O=C(Nc1ccc(N2CCC2)nc1)c1cc2cc(Cl)ccc2n1Cc1cccc(F)c1` [Compound 43, N-[6-(azetidin-1-yl)pyridin-3-yl]-5-chloro-1-(3-fluorobenzyl)-1H-indole-2-carboxamide] as the compound, how does the melting point read?
Answer: 226 to 228 °C

Question: Which melting point does the source give for `O=C(Nc1ccc(N2CCC2)nc1)c1cc2ccccc2n1Cc1cccc(F)c1` [Compound 44, N-[6-(azetidin-1-yl)pyridin-3-yl]-1-(3-fluorobenzyl)-1H-indole-2-carboxamide] here?
Answer: 328 to 330 °C

Question: For `Cc1cccc2c1cc(C(=O)Nc1ccc(N3CCC3)nc1)n2Cc1cccc(F)c1` [Compound 45, N-[6-(azetidin-1-yl)pyridin-3-yl]-4-methyl-1-(3-fluorobenzyl)-1H-indole-2-carboxamide], which melting point is on record?
Answer: 246 to 248 °C

Question: With `Cc1ccc2cc(C(=O)Nc3ccc(N4CCC4)nc3)n(Cc3cccc(F)c3)c2c1` [Compound 46, N-[6-(azetidin-1-yl)pyridin-3-yl]-6-methyl-1-(3-fluorobenzyl)-1H-indole-2-carboxamide] as the compound, how does the melting point read?
Answer: 228 to 230 °C

Question: Which melting point does the source give for `Cc1ccc2c(c1)cc(C(=O)Nc1ccc(N3CCC3)nc1)n2Cc1cccc(F)c1` [Compound 47, N-[6-(azetidin-1-yl)pyridin-3-yl]-5-methyl-1-(3-fluorobenzyl)-1H-indole-2-carboxamide] here?
Answer: 236 to 238 °C

Question: With `CC(C)c1ccc2c(c1)cc(C(=O)Nc1ccc(N3CCC3)nc1)n2Cc1cccc(F)c1` [Compound 48, N-[6-(azetidin-1-yl)pyridin-3-yl]-5-isopropyl-1-(3-fluorobenzyl)-1H-indole-2-carboxamide] as the compound, how does the melting point read?
Answer: 204 to 206 °C

Question: For `CC(C)(C)c1ccc2c(c1)cc(C(=O)Nc1ccc(N3CCC3)nc1)n2Cc1cccc(F)c1` [Compound 49, N-[6-(azetidin-1-yl)pyridin-3-yl]-5-tert-butyl-1-(3-fluorobenzyl)-1H-indole-2-carboxamide], which melting point is on record?
Answer: 212 to 214 °C

Question: With `CCc1ccc2cc(C(=O)Nc3ccc(N4CCC4)nc3)n(Cc3cccc(F)c3)c2c1` [Compound 50, N-[6-(azetidin-1-yl)pyridin-3-yl]-6-ethyl-1-(3-fluorobenzyl)-1H-indole-2-carboxamide] as the compound, how does the melting point read?
Answer: 196 to 198 °C

Question: For `CC(C)c1ccc2cc(C(=O)Nc3ccc(N4CCC4)nc3)n(Cc3cccc(F)c3)c2c1` [Compound 51, N-[6-(azetidin-1-yl)pyridin-3-yl]-6-isopropyl-1-(3-fluorobenzyl)-1H-indole-2-carboxamide], which melting point is on record?
Answer: 184 to 186 °C

Question: With `O=C(Nc1ccc(N2CCC2)nc1)c1cc2ccc(C(F)(F)F)cc2n1Cc1cccc(F)c1` [Compound 52, N-[6-(azetidin-1-yl)pyridin-3-yl]-6-trifluoromethyl-1-(3-fluorobenzyl)-1H-indole-2-carboxamide] as the compound, how does the melting point read?
Answer: 220 to 222 °C

Question: Which melting point does the source give for `O=C(Nc1cnc(N2CCCC2)cc1C(F)(F)F)c1cc2cc(F)ccc2n1Cc1cccc(F)c1` [Compound 53, N-[6-(pyrrolidin-1-yl)-4-(trifluoromethyl)pyridin-3-yl]-5-fluoro-1-(3-fluorobenzyl)-1H-indole-2-carboxamide] here?
Answer: 170 to 171 °C
